Experimental data from patent US11358931B2, “Selective androgen receptor modulators (SARMs) and uses thereof” (priority 2007, dated 2022).
pIC50: −log10 of the molar value.

How the values were obtained:
hGR = target: T1, hGR (Homo sapiens, UniProt P04150); experiment: Co-transfection assay, other nuclear receptors: hGR; format: cell-based
T1 construct: expressed in transfected cells
T1 sequence (P04150 1-777): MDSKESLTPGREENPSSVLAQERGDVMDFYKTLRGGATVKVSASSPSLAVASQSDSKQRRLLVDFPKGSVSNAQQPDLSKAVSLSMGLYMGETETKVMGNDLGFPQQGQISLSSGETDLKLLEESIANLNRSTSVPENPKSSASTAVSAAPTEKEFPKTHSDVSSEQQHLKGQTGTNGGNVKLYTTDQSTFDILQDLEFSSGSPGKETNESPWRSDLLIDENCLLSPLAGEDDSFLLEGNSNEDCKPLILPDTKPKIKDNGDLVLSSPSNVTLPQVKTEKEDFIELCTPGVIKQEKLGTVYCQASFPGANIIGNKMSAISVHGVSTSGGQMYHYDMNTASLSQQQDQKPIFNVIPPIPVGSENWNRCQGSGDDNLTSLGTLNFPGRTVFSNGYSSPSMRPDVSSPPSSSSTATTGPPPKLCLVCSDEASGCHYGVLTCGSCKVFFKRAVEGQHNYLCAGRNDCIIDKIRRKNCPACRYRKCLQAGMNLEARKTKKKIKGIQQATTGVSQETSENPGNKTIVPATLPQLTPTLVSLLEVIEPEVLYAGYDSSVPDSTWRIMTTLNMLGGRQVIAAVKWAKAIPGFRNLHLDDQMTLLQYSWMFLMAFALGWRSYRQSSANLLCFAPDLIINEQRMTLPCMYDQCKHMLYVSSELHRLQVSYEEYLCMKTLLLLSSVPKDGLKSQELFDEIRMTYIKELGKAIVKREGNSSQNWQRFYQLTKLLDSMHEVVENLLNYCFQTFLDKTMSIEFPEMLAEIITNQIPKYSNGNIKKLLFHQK
Source text: An exemplary co-transfection assay is the luciferase reporter assay (Evans, Science 240: 889-895 (1988), Berger et al., J Steroid Biochem Mol Biol 41: 733-738 (1992)) can be used to establish the ability of a compound of formulae I, II or III to activate (agonist activity) or repress (antagonist activity) the ability of the human androgen receptor (hAR) to induce gene expression. A human cell line containing endogenously expressed hAR (e.g., MDA-MB-453 cells, derived from a human mammary carcinoma, American Tissue Type Culture Collection [ATCC] HTB 131) can be transfected with an androgen responsive luciferase reporter plasmid to measure the level of cross-reactivity of the compound on other nuclear receptors (such as the glucocorticoid receptor (GR), estrogen receptor (ER), mineralocorticoid receptor (MR), progesterone receptor (PR), retinoid receptor (RAR), retinoid X receptor (RXR), peroxisome proliferator activating receptors alpha (PPARα), gamma (PPARγ) and delta (PPARδ), liver X receptor (LXR), farnesyl X receptor (FXR) and the pregnane X receptor (PXR)). In the assay, luciferase reporter plasmids containing the cDNA for firefly luciferase (LUC) under the control of a conditional promoter containing hormone response elements recognized by the appropriate nuclear receptor are co-transfected into cells with the nuclear receptor expression plasmid. […]

[1] = Toxicokinetics in cynomolgus monkeys (14-day oral study); format: in vivo, cynomolgus monkey
Protocol: A study was performed to determine any potential toxicity and the toxicokinetic profile of Compound 102 when administered orally (via nasal gavage) to cynomolgus monkeys for at least 14 days. The cynomolgus monkey was chosen for this study as it is a non-rodent species that is commonly used for non-clinical toxicity evaluations. Use of the monkey model maximized the likelihood of identifying toxicological responses that may occur in humans. Ten experimentally naïve cynomolgus monkeys (5 male and 5 female) from about 2.5 to 3 years of age and weighing between about 2.3 to about 2.8 kg at Day −1 of the study were assigned to dose groups as shown in Table 6 below.
All animals were dosed via nasal gavage once daily for 14 consecutive days. The first day of dosing was designated Day 1 for all animals. The animals were evaluated for clinical signs (evaluation of mortality and morbidity, twice daily), cage side observations and food consumption (once daily), body weight (Days 1, 8 and 14), physical examination (Day −5 and post dosing following the 13/24 hour toxicokinetic collection on Day 14), ophthalmic examination (prestudy and owing the Day 13/24 hour toxicokinetic collection on Day 14), and clinical pathology parameters (serum chemistry, hematology and coagulation on Days −3 and 14), urine samples were collected during necropsy (Day 15) for urinalysis. Blood samples were collected for toxicokinetic analysis at 1, 2, 4, 8, 12 and 24 hours post dose on Days 1 and 13.

[2] = In vitro genotoxicity assays
Source text: Compounds disclosed herein can be evaluated for efficacy and toxicity using known methods. For example, the toxicology of a particular compound, or of a subset of the compounds, sharing certain chemical moieties, may be established by determining in vitro toxicity towards a cell line, such as a bacterial or mammalian, including human, cell line. The results of such studies are often predictive of toxicity in animals, such as mammals, or more specifically, humans. Exemplary assays include bacterial reverse mutation assays (e.g., see Ames et al., Mutation Research 31: 347-364 (1975); Green et al., Mutation Research 38: 3-32 (1976); and Maron et al., Mutation Research 113: 173-215 (1983), cytological methods for detecting chemical mutagens (Evans, Chemical Mutagens, Principles and Methods for their Detection, Vol. 4 (Plenum Press, New York, N.Y. (1976))), chromosomal aberration assays (Galloway et al., Mutation Research 312(3): 241-261 (1994)), genotoxicity assays (Federal Register 61: 18198-18202 (1996) and Federal Register 62: 16026-16030 (1997)) and cytogenetic assays (Preston et al., Mutation Research 87: 143-188 (1981)).

N#Cc1ccc(N2CCC[C@@H]2[C@@H](O)C(F)(F)F)cc1C(F)(F)F [Compound 102, R,R-4-(2-(1-Hydroxyl-2,2,2-trifluoroethyl)-pyrrolidinyl)-2-trifluoromethyl-benzonitrile]
pIC50 (hGR): 5.80 | antagonism of dexamethasone-induced activation of hGR (efficacy) (hGR; dexamethasone-induced activation): 60% | sex difference in toxicokinetic parameters ([1]; Day 1 and Day 13): no noticeable sex difference | effect of repeat administration on systemic exposure ([1]; Day 13 relative to Day 1): decreased on Day 13 | systemic exposure versus dose ([1]; both sexes): increased with increasing dose up to 450 mg/kg | genotoxicity [2]: negative
